TGI and GI50 data for 24 compounds are collected here from PubChem BioAssay (NCI).

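Growth conditions: 96-well plates. Treatment: test compound, 48 hours, 5 concentrations. Analysis: linear interpolation between bracketing concentrations; unreached endpoints set to highest concentration. At the GI50, growth is halved. TGI denotes the concentration required for complete inhibition of growth.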

Holding throughout (test): DTP human tumour cell line panel, 48 h
Assay [1] relates to NCI-H522 lung.
The test system of assay [2] is UO-31 renal.
Assay [3] deals with K-562 leukemia.
Assay [4] relates to LOX IMVI melanoma.
Assay [5] relates to SW-620 colon.
For assay [6], the system named is A498 renal.
Assay [7] has as its system HCC-2998 colon.
For assay [8], the system named is OVCAR-4 ovarian.

With `Cn1nc(-c2ccccc2)c(C(=O)/C=C/c2ccc(Cl)cc2)c(N2CCCC2)c1=O`, the total growth inhibition concentration (TGI) in assay [1] amounted to 6.45 µM; in assay [2], 21.5 µM; in assay [3], 9.06 µM; in assay [4] it was 39.2 µM; in assay [5], 21.9 µM.

For the compound `COc1ccc2c(c1)c1c3n2CCNN=C3CCC1`, the concentration for total growth inhibition (TGI) in assay [1], in assay [6], in assay [2], in assay [7], in assay [8] and in assay [3] was over 100 µM in each case. In addition, the TGI in assay [4] and in assay [5] was over 100 µM in each case.

`C/C(=N\NS(=O)(=O)c1ccc([N+](=O)[O-])cc1)c1ccc[n+]([O-])n1`: the TGI is 4.51 µM in assay [1]; 4 µM in assay [6]; 6.74 µM in assay [2]; 22.3 µM in assay [7]; 5.69 µM in assay [8]; over 65.4 µM in assay [3]. Further, the TGI was found to be 2.15 µM in assay [4] and 7.99 µM in assay [5].

In the case of `[CH3][Sn]1([CH3])[O]CC(COc2cc(Cl)c(Cl)cc2Cl)[O]1` (stereo not drawn), the GI50 in assay [1] was 16.8 µM; in assay [6], 70 µM; in assay [2] it was 71 µM; in assay [7], 62.5 µM; in assay [8], over 100 µM; in assay [3] it was over 100 µM. The GI50 was over 100 µM in assay [4] and 51 µM in assay [5]. Moreover, the TGI in assay [1] is 36.3 µM; in assay [6], over 100 µM; in assay [2], over 100 µM; in assay [7], over 100 µM; in assay [8] it was over 100 µM; in assay [3], over 100 µM. For the same compound, the TGI in assay [4] and in assay [5] was over 100 µM in each case.

Consider `CCCCNC1=C(C(=O)OCC)/C(=N/NC(=O)c2ccccc2O)CO1`, for which the TGI in assay [1] was 57.8 µM; in assay [6] it was over 100 µM; in assay [2], 28.1 µM; in assay [7] it was over 100 µM; in assay [8], over 100 µM; in assay [3] it was over 100 µM. In addition, the total growth inhibition concentration (TGI) in assay [4] and in assay [5] was over 100 µM each time.

Regarding `COc1ccc(C)cc1C1CCC(=O)O1` (stereo not drawn), the TGI in assay [1], in assay [6], in assay [2], in assay [7], in assay [3] and in assay [4] was over 100 µM throughout. In addition, the concentration for total growth inhibition (TGI) in assay [5] was over 100 µM.

Turning to `CC(C)(C)Sc1nnc(SC(C)(C)C)c2c(=O)[nH]nc(SC(C)(C)C)c12`, the total growth inhibition concentration (TGI) amounted to 14.2 µM in assay [1]; 27.1 µM in assay [6]; 19.7 µM in assay [2]; 23.9 µM in assay [7]; 10.5 µM in assay [8]; 26.8 µM in assay [3]. Besides, the TGI in assay [4] came to 24.2 µM; in assay [5], 20.8 µM.

`O=C1C=Cc2ncccc2C1=O`: the TGI was 29.7 µM in assay [1]; over 91.5 µM in assay [6]; over 57.7 µM in assay [2]; over 61.6 µM in assay [7]; 17.2 µM in assay [8]; 26.4 µM in assay [3]. In addition, the total growth inhibition concentration (TGI) in assay [4] came out at 26.9 µM; in assay [5] it was 31.1 µM.

`C#CCOCn1cnc2ncnc(N)c21`: the TGI in assay [1], in assay [6], in assay [2], in assay [7], in assay [8] and in assay [3] was over 100 µM each time. Further, the total growth inhibition concentration (TGI) in assay [4] and in assay [5] was over 100 µM each time.

For `CC(=O)c1c2c(cc3c1CC1(C3)Cc3cc4c(c(C(=O)O)c3C1)CCC4)CCC2` (stereo not drawn), the TGI is 42.3 µM in assay [1]; 72.7 µM in assay [2]; over 100 µM in assay [7]; over 100 µM in assay [8]; 97.8 µM in assay [3]; over 100 µM in assay [4]. In assay [5], this compound showed a TGI of over 100 µM.

Take `COc1cc(C(C#N)NNc2nc(C)cc(=O)[nH]2)cc(OC)c1OC` (stereo not drawn): the TGI in assay [1], in assay [2], in assay [8], in assay [3], in assay [4] and in assay [5] was over 100 µM in each case.

Turning to `O=S1(=O)c2ccccc2N=C(c2ccccc2Cl)CC1c1ccc(F)cc1` (stereo not drawn), the TGI in assay [1] was determined as 26.9 µM; in assay [6], 35.7 µM; in assay [2], 28.6 µM; in assay [7], 28.4 µM; in assay [8], 32.8 µM; in assay [3], 34.6 µM. Moreover, the total growth inhibition concentration (TGI) in assay [4] was determined as 34.2 µM; in assay [5], 31.5 µM.

For `CC(C)N1C(C)[C@@H](c2ccccc2)O[P@]1(=O)CC1=CCCCC1` (stereo partly drawn), the TGI in assay [1], in assay [6], in assay [2], in assay [7], in assay [3] and in assay [4] was over 100 µM in each case. The total growth inhibition concentration (TGI) in assay [5] was over 100 µM.

As to `Cc1ccc2nc(NC(=O)C(=O)CC(=O)c3cccc4ccccc34)sc2c1`, the TGI in assay [6] is over 100 µM; in assay [2], over 100 µM; in assay [7], over 100 µM; in assay [8] it was 32.1 µM; in assay [3] it was over 100 µM; in assay [4], over 100 µM. For the same compound, the TGI in assay [5] is over 100 µM.

Take `N#CC(C(=O)CCCC(=O)Nc1ccc(Cl)cc1Cl)c1ccc(Cl)cc1` (stereo not drawn): the TGI in assay [1], in assay [2], in assay [7], in assay [8], in assay [3] and in assay [4] was over 100 µM each time. Further, the total growth inhibition concentration (TGI) in assay [5] was over 100 µM.

In the case of `CC(C)[Si](OCC1CC(C#N)OC(C)(C)O1)(C(C)C)C(C)C` (stereo not drawn), the TGI in assay [1] is 43.5 µM; in assay [6], 19.1 µM; in assay [2], 40.9 µM; in assay [7] it was 38.4 µM; in assay [8], over 100 µM; in assay [3], 37.9 µM. Besides, the TGI in assay [4] was found to be 33.7 µM; in assay [5], 36 µM.

With `Cc1noc(/N=C2\C=C(Nc3onc(C)c3C)C(=O)c3ccccc32)c1C`, the concentration for total growth inhibition (TGI) in assay [6], in assay [2], in assay [7], in assay [8], in assay [3] and in assay [4] was over 100 µM in each case. This compound yielded a TGI in assay [5] of over 100 µM.

Take `O=CCCCC(Sc1ccccc1)Sc1ccccc1`: the TGI was over 100 µM in assay [1]; over 100 µM in assay [6]; 66.8 µM in assay [2]; 84 µM in assay [7]; 45.6 µM in assay [8]; 76.6 µM in assay [3]. For the same compound, the total growth inhibition concentration (TGI) in assay [4] is 26.6 µM; in assay [5], 23.6 µM.

As for `COc1ccc(NC(=O)C2C(=O)N(c3ccc(OC)cc3)C(=O)/C2=N\NC(N)=O)cc1` (stereo not drawn), the TGI in assay [1] is over 100 µM; in assay [6], 45 µM; in assay [2] it was 80.8 µM; in assay [7], over 100 µM; in assay [8] it was 94.3 µM; in assay [3], over 100 µM. Further, the concentration for total growth inhibition (TGI) in assay [4] and in assay [5] was over 100 µM in each case.

Take `CC(=O)NC(CCCN(Cc1ccccc1)C(=O)N(C)N=O)C(=O)NCc1ccccc1` (stereo not drawn): the TGI in assay [1], in assay [6], in assay [2], in assay [7], in assay [8] and in assay [3] was over 100 µM throughout. The concentration for total growth inhibition (TGI) in assay [4] and in assay [5] was over 100 µM each time.

As to `CCOC(=O)CC(NC(=O)c1ccc(N=NN(C)C)cc1)C(=O)OCC` (stereo not drawn), the TGI in assay [1], in assay [6], in assay [2], in assay [7], in assay [8] and in assay [3] was over 100 µM in each case. Further, the TGI in assay [4] and in assay [5] was over 100 µM throughout.

As for `c1ccc(-c2nnc3nn4c(-c5ccccc5)cnnc4c3c2-c2ccccc2)cc1`, the concentration for total growth inhibition (TGI) was over 100 µM in assay [6]; 75.1 µM in assay [2]; over 100 µM in assay [7]; 42.5 µM in assay [8]; over 100 µM in assay [3]; over 100 µM in assay [4]. The TGI in assay [5] is over 100 µM.

Take `CC(=O)[C-](C(C)=O)c1ccccc1.CC(=O)[C-](C(C)=O)c1ccccc1.CC(=O)[C-](C(C)=O)c1ccccc1.[Cl-].[Zr+4]`: the GI50 in assay [1], in assay [6], in assay [2], in assay [8], in assay [3] and in assay [4] was over 100 µM each time. Also, the GI50 in assay [5] is over 100 µM. Also, the total growth inhibition concentration (TGI) in assay [1], in assay [6], in assay [2], in assay [8], in assay [3] and in assay [4] was over 100 µM each time. Further, in assay [5], the concentration for total growth inhibition (TGI) is over 100 µM.

Consider `CC1=CC(=O)NP(=O)(C23CC4CC(CC(C4)C2)C3)N1` (stereo not drawn), for which the TGI in assay [1], in assay [6], in assay [2], in assay [8], in assay [3] and in assay [4] was over 100 µM each time. Also, the TGI in assay [5] was over 100 µM.
